Results: ChEMBL document CHEMBL3616452 (Eur J Med Chem, 2015)
The source made the active and inactive calls. The calls are words filed in the database; no cut-off is given here.

Assays:
[1] = Antiviral activity against Influenza A virus (A/WSN/1933(H1N1)) assessed as virus-mediated cytopathic effect in MDCK cells after 48 to 72 hrs; format: functional, cell-based
MDCK [2] = experiment: Inhibition of nucleoprotein synthesis in Influenza A virus (A/WSN/1933(H1N1)) infected in MDCK cells by fluorescence analysis; format: functional, cell-based
MDCK [3] = experiment: Inhibition of nucleoprotein synthesis in Influenza A virus (A/WSN/1933(H1N1)) infected in MDCK cells at 0.3 uM dosed 0.5 hrs post infection by fluorescence analysis; format: functional, organism-based
Nucleoprotein = Nucleoprotein (Influenza A virus (strain A/Wilson-Smith/1933 H1N1), UniProt P15682); experiment: Binding affinity to Influenza A virus (A/WSN/1933(H1N1)) nucleoprotein transfected in 293T cells assessed as inhibition of RNA dependent RNA polymerase activity; format: cell-based
MDCK [4] = experiment: Inhibition of nucleoprotein synthesis in Influenza A virus (A/WSN/1933(H1N1)) infected in MDCK cells at 0.3 and 1 uM dosed > 0.5 hrs post infection by fluorescence analysis; format: functional, organism-based
MDCK [5] = experiment: Antiviral activity against wild-type Influenza A virus (A/WSN/1933(H1N1)) assessed as virus-mediated cytopathic effect in MDCK cells at 0.3 uM; format: functional, cell-based
MDCK [6] = experiment: Inhibition of nucleoprotein synthesis in Influenza A virus (A/WSN/1933(H1N1)) infected in MDCK cells at 1.0 uM dosed 0.5 hrs post infection by fluorescence analysis; format: functional, organism-based
MDCK [7] = experiment: Inhibition of nucleoprotein synthesis in Influenza A virus (A/WSN/1933(H1N1)) infected in MDCK cells at 15.0 uM by immunofluorescence assay; format: functional, cell-based
MDCK [8] = experiment: Inhibition of nucleoprotein synthesis in Influenza A virus (A/WSN/1933(H1N1)) infected in MDCK cells at 3.0 uM by immunofluorescence assay; format: functional, cell-based
MDCK [9] = experiment: Inhibition of nucleoprotein synthesis in Influenza A virus (A/WSN/1933(H1N1)) infected in MDCK cells at 10.0 uM dosed post-infection by fluorescence analysis; format: functional, organism-based
[10] = Antiviral activity against wild-type Influenza A virus (A/WSN/1933(H1N1)) assessed as virus-mediated cytopathic effect in MDCK cells; format: functional, cell-based

Nucleoprotein, sequence (P15682 whole entry): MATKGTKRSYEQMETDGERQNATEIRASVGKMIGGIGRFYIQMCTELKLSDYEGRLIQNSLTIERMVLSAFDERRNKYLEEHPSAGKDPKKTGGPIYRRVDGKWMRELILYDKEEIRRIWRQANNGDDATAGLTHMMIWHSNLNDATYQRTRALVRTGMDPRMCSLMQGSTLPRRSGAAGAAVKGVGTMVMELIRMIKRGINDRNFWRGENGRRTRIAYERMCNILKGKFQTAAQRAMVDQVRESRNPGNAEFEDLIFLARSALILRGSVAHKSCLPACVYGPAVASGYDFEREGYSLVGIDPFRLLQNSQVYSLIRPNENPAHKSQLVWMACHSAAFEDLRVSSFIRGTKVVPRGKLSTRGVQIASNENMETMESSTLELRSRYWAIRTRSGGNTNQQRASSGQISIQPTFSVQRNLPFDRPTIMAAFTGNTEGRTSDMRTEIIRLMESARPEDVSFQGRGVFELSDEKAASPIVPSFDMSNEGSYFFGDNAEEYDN

Structure (SMILES) | EC50 [1] | also measured
Cn1c(=O)c2c(-c3ccccc3)n3c(c2n(C)c1=O)C(c1ccccc1Cl)OCC3(C)C (centres undefined) | 8 µM | –
Cn1c(=O)c2c(-c3ccccc3)n3c(c2n(C)c1=O)C(C1CCCC1)OCC3 (centres undefined) | > 50 µM | –
CCCC1OCCn2c(-c3ccccc3)c3c(=O)n(C)c(=O)n(C)c3c21 (centres undefined) | > 50 µM | –
Cn1c(=O)c2c(-c3ccccc3)n3c(c2n(C)c1=O)C(c1cccs1)OCC3(C)C (centres undefined) | 6.8 µM | –
CCCn1c(=O)c2c(-c3ccccc3)n3c(c2n(CCC)c1=O)C(C1CCCCC1)OCC3 (centres undefined) | > 50 µM | –
Cc1onc(-c2ccccc2Cl)c1C(=O)N1CCN(c2ccc([N+](=O)[O-])cc2)CC1 | – | inhibition (MDCK [2]): Active; inhibition (MDCK [3]): Active; IC50 (Nucleoprotein): 0.23 µM; inhibition (MDCK [4]): inactive; Activity (MDCK [5]): Active; inhibition (MDCK [6]): Active
Cn1c(=O)c2c(-c3ccccc3)n3c(c2n(C)c1=O)C(c1ccccc1F)OCC3 (centres undefined) | > 50 µM | –
Cn1c(=O)c2c(-c3ccccc3)n3c(c2n(C)c1=O)C(c1ccccc1)OCC3(C)C (centres undefined) | 5.4 µM | –
Cn1c(=O)c2c(-c3ccccc3)n3c(c2n(C)c1=O)C(c1ccc(Br)o1)OCC3 (centres undefined) | > 50 µM | –
Cn1c(=O)c2c(-c3ccccc3)n3c(c2n(C)c1=O)C(c1ccc(C(F)(F)F)cc1)OCC3(C)C (centres undefined) | > 50 µM | –
Cn1c(=O)c2c(-c3ccccc3)n3c(c2n(C)c1=O)C(c1ccccc1)OCC3 (centres undefined) | > 50 µM | –
Cn1c(=O)c2c(-c3ccccc3)n3c(c2n(C)c1=O)C(c1ccccc1F)OCC3(C)C (centres undefined) | 1 µM | inhibition (MDCK [2]; TDE = time-dependent effect): tde; IC50 (Nucleoprotein): 4.9 µM; inhibition (MDCK [7]): Active; inhibition (MDCK [8]): inactive; inhibition (MDCK [9]): Active; EC50 [10]: 2.3 µM
Cn1c(=O)c2c(-c3ccccc3)n3c(c2n(C)c1=O)C(c1ccccc1Cl)OCC3 (centres undefined) | > 50 µM | –
COc1ccc(C2OCC(C)(C)n3c(-c4ccccc4)c4c(=O)n(C)c(=O)n(C)c4c32)cc1 (centres undefined) | > 50 µM | –
Cn1c(=O)c2c(-c3ccccc3)n3c(c2n(C)c1=O)C(c1ccco1)OCC3 (centres undefined) | > 50 µM | –
Cn1c(=O)c2c(-c3ccccc3)n3c(c2n(C)c1=O)C(c1cccs1)OCC3 (centres undefined) | > 50 µM | –
Cn1c(=O)c2c(-c3ccccc3)n3c(c2n(C)c1=O)C(C1CCCCC1)OCC3(C)C (centres undefined) | > 50 µM | –
Cn1c(=O)c2c(-c3ccccc3)n3c(c2n(C)c1=O)C(C1CCCCC1)OCC3 (centres undefined) | > 50 µM | –
